Laboratory results taken from US12065436B2, “Cardiac sarcomere inhibitors” (Cytokinetics, Inc., priority 2018, dated 2024).

Molecular target: bovine cardiac myofibrils (full-length cardiac myosin ATPase in the native sarcomere) (Bos taurus (Bovine), UniProt Q9BE39)
Assay: Skinned bovine cardiac myofibril ATPase assay (PK/LDH-coupled)
Format: biochemical
Conditions: Ca2+ activating to 75% of maximal rate; for CDMF75 IC15: concentration giving 15% inhibition; for IC50: read-out: CDMF75 IC50
Procedure, shortened: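 Triton-skinned bovine left-ventricle myofibrils (1 mg/mL) in PM 12 buffer (12 mM PIPES, 2 mM MgCl2, pH 6.8) with 50 μM ATP, 0.6 mM EGTA and CaCl2 set for 50% or 75% activation. Steady-state ATPase inhibition followed by PK/LDH-coupled NADH oxidation at 340 nm.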

Chain of bovine cardiac myofibrils (full-length cardiac myosin ATPase in the native sarcomere) (Q9BE39 whole entry): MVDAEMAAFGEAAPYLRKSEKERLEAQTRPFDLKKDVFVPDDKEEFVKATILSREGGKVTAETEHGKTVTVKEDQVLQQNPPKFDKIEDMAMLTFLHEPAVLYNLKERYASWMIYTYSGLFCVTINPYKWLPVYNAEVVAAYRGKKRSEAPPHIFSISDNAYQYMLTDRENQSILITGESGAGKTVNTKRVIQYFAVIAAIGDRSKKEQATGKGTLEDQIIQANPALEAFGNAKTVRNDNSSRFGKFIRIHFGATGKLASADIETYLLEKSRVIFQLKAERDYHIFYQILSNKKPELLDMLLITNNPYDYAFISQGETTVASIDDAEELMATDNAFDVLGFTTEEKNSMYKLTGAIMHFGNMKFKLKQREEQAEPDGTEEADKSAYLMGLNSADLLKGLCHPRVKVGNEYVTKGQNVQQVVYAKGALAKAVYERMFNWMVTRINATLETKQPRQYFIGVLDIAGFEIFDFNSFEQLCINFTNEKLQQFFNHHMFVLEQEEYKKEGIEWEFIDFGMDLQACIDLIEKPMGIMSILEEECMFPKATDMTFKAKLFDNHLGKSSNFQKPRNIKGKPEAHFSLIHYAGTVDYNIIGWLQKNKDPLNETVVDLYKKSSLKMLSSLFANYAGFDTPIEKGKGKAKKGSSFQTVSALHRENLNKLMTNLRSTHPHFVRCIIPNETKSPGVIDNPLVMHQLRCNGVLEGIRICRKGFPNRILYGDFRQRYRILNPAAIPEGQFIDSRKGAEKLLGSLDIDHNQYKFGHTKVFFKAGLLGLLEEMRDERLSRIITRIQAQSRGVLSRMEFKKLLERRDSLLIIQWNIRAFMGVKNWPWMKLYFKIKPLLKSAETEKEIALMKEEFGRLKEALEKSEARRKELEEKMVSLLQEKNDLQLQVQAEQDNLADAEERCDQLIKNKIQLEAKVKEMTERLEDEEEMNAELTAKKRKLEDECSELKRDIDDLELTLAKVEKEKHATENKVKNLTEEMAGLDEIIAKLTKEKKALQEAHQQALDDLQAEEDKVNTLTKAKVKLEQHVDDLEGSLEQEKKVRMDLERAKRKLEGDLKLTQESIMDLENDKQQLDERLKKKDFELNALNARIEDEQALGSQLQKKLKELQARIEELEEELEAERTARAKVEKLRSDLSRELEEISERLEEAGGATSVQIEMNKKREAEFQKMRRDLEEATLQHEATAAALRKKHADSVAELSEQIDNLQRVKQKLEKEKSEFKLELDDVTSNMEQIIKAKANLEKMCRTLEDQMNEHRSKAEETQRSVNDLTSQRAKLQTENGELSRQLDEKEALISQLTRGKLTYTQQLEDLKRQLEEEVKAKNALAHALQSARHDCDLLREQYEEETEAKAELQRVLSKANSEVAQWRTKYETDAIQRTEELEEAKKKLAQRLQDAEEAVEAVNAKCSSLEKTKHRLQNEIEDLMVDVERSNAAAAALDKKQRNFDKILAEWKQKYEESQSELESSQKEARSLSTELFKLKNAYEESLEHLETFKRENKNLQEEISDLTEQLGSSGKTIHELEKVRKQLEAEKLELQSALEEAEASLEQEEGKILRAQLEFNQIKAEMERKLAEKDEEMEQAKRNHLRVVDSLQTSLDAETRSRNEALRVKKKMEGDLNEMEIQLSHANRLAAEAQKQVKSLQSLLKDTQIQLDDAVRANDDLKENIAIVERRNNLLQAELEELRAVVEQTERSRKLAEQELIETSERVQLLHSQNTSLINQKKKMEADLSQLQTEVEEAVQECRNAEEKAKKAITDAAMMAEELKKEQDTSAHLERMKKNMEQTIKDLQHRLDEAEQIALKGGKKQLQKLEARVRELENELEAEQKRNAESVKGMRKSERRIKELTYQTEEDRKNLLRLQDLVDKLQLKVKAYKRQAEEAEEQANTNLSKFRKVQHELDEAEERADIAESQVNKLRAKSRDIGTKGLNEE
Chain of bovine cardiac myofibrils (full-length cardiac myosin ATPase in the native sarcomere) (P85100 whole entry partner): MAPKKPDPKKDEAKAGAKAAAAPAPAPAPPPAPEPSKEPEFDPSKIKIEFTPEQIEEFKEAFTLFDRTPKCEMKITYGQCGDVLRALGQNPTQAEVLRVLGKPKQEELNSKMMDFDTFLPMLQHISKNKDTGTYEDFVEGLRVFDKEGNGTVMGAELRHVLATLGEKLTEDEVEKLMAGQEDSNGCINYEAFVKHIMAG
Chain of bovine cardiac myofibrils (full-length cardiac myosin ATPase in the native sarcomere) (Q3SZE5 whole entry partner): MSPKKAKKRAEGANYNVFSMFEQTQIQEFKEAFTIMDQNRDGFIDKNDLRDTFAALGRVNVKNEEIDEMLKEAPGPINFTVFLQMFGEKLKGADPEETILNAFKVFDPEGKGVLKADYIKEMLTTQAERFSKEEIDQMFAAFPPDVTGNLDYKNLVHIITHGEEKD

Question: With `Cc1nc(-c2ccc3c(c2)CCC3NC(=O)c2conc2C)no1` (stereo not shown) [Compound 89, 3-methyl-N-(5-(5-methyl-1,2,4-oxadiazol-3-yl)-2,3-dihydro-1H-inden-1-yl)isoxazole-4-carboxamide] as the compound, how does the “CDMF75 IC15” value read?
Answer: The value was 1.0 µM.

Question: What about the IC50 of the same compound?
Answer: The IC50 was 3.3 µM.

Question: Which results are given for `Cc1nn(C)cc1C(=O)N[C@@H]1CCc2cc(-c3noc(C(F)F)n3)ccc21` [Compound 90, (R)-N-(5-(5-(difluoromethyl)-1,2,4-oxadiazol-3-yl)-2,3-dihydro-1H-inden-1-yl)-1,3-dimethyl-1H-pyrazole-4-carboxamide]?
Answer: CDMF75 IC15: 0.4 µM; IC50: 1.9 µM

Question: What does the source list for `Cc1c(C(=O)N[C@@H]2CCc3cc(-c4noc(C(F)F)n4)ccc32)cnn1C` [Compound 91, (R)-N-(5-(5-(difluoromethyl)-1,2,4-oxadiazol-3-yl)-2,3-dihydro-1H-inden-1-yl)-1,5-dimethyl-1H-pyrazole-4-carboxamide]?
Answer: CDMF75 IC15: 0.5 µM; IC50: 1.8 µM

Question: Which results are given for `Cn1nccc1C(=O)N[C@@H]1CCc2cc(-c3noc(C(F)F)n3)ccc21` [Compound 92, (R)-N-(5-(5-(difluoromethyl)-1,2,4-oxadiazol-3-yl)-2,3-dihydro-1H-inden-1-yl)-1-methyl-1H-pyrazole-5-carboxamide]?
Answer: CDMF75 IC15: 0.3 µM; IC50: 0.8 µM

Question: Which results are given for `O=C(NC1CCc2cc(-c3noc(C(F)F)n3)cnc21)c1ccccc1` (stereo not shown) [Compound 94, N-(3-(5-(difluoromethyl)-1,2,4-oxadiazol-3-yl)-6,7-dihydro-5H-cyclopenta[b]pyridin-7-yl)benzamide]?
Answer: CDMF75 IC15: 5.2 µM; IC50: 26.6 µM

Question: `O=C(NC1CCc2cc(-c3noc(C(F)F)n3)ccc21)c1ccnc(O)c1` (stereo not shown) [Compound 95, N-(5-(5-(difluoromethyl)-1,2,4-oxadiazol-3-yl)-2,3-dihydro-1H-inden-1-yl)-2-hydroxyisonicotinamide] was tested. Which “CDMF75 IC15” value did it give?
Answer: Its value is 1.9 µM.

Question: And the IC50?
Answer: The IC50 was 8 µM.

Question: What does the source list for `Cc1nc(-c2ccc3c(c2)CCC3NC(=O)Nc2cncnc2)no1` (stereo not shown) [Compound 96, 1-(5-(5-methyl-1,2,4-oxadiazol-3-yl)-2,3-dihydro-1H-inden-1-yl)-3-(pyrimidin-5-yl)urea]?
Answer: CDMF75 IC15: 3.0 µM; IC50: 13.4 µM

Question: How did the “CDMF75 IC15” value turn out when `Cc1nc(-c2ccc3c(c2)CCC3NC(=O)Nc2cccnn2)no1` (stereo not shown) [Compound 97, 1-(5-(5-methyl-1,2,4-oxadiazol-3-yl)-2,3-dihydro-1H-inden-1-yl)-3-(pyridazin-3-yl)urea] was run?
Answer: Its value is 2.0 µM.

Question: And the IC50?
Answer: Its IC50 is 7.8 µM.

Question: With `Cc1nc(-c2ccc3c(c2)CCC3NC(=O)Nc2ccncn2)no1` (stereo not shown) [Compound 98, 1-(5-(5-methyl-1,2,4-oxadiazol-3-yl)-2,3-dihydro-1H-inden-1-yl)-3-(pyrimidin-4-yl)urea] as the compound, how does the “CDMF75 IC15” value read?
Answer: Its value is 13.1 µM.

Question: And the IC50?
Answer: The IC50 was greater than 39.2 µM.

Question: What does the source list for `Nc1cc(C(=O)NC2CCc3cc(-c4noc(C(F)F)n4)ccc32)ccn1` (stereo not shown) [Compound 99, 2-amino-N-(5-(5-(difluoromethyl)-1,2,4-oxadiazol-3-yl)-2,3-dihydro-1H-inden-1-yl)isonicotinamide]?
Answer: CDMF75 IC15: 0.6 µM; IC50: 2.6 µM

Question: How did the “CDMF75 IC15” value turn out when `Cc1cc(C(=O)N[C@@H]2CCc3cc(-c4noc(C(F)F)n4)ccc32)n(C)n1` [Compound 101, (R)-N-(5-(5-(difluoromethyl)-1,2,4-oxadiazol-3-yl)-2,3-dihydro-1H-inden-1-yl)-1,3-dimethyl-1H-pyrazole-5-carboxamide] was run?
Answer: Its value is 0.3 µM.

Question: What about the IC50 of the same compound?
Answer: The IC50 was 1.1 µM.

Question: Which results are given for `Cc1conc1C(=O)NC1CCc2cc(-c3noc(C(F)F)n3)ccc21` (stereo not shown) [Compound 104, N-(5-(5-(difluoromethyl)-1,2,4-oxadiazol-3-yl)-2,3-dihydro-1H-inden-1-yl)-4-methylisoxazole-3-carboxamide]?
Answer: CDMF75 IC15: 1.7 µM; IC50: 6.3 µM

Question: Which results are given for `Cc1nc(-c2ccc3c(c2)CCC3NC(=O)c2nocc2C)no1` (stereo not shown) [Compound 105, 4-methyl-N-(5-(5-methyl-1,2,4-oxadiazol-3-yl)-2,3-dihydro-1H-inden-1-yl)isoxazole-3-carboxamide]?
Answer: CDMF75 IC15: 2.2 µM; IC50: 8.9 µM

Question: Which results are given for `Cc1cc(C(=O)N[C@@H]2CCc3cc(-c4noc(C)n4)ccc32)n(C)n1` [Compound 106, (R)-1,3-dimethyl-N-(5-(5-methyl-1,2,4-oxadiazol-3-yl)-2,3-dihydro-1H-inden-1-yl)-1H-pyrazole-5-carboxamide]?
Answer: CDMF75 IC15: 0.8 µM; IC50: 2.8 µM

Question: What does the source list for `Cc1nc(-c2ccc3c(c2)CC[C@H]3NC(=O)c2ccnn2C)no1` [Compound 107, (R)-1-methyl-N-(5-(5-methyl-1,2,4-oxadiazol-3-yl)-2,3-dihydro-1H-inden-1-yl)-1H-pyrazole-5-carboxamide]?
Answer: CDMF75 IC15: 0.5 µM; IC50: 1.7 µM

Question: How did the “CDMF75 IC15” value turn out when `CCc1nc(-c2cnc3c(c2)CCC3NC(=O)c2ccnc(C)c2)no1` (stereo not shown) [Compound 108, N-(3-(5-ethyl-1,2,4-oxadiazol-3-yl)-6,7-dihydro-5H-cyclopenta[b]pyridin-7-yl)-2-methylisonicotinamide] was run?
Answer: Its value is 5.2 µM.

Question: What about the IC50 of the same compound?
Answer: The IC50 was 24 µM.

Question: How did the “CDMF75 IC15” value turn out when `Cc1nc(-c2ccc3c(c2)CCC3NC(=O)Nc2ccccn2)no1` (stereo not shown) [Compound 109, 1-(5-(5-methyl-1,2,4-oxadiazol-3-yl)-2,3-dihydro-1H-inden-1-yl)-3-(pyridin-2-yl)urea] was run?
Answer: The value was 1.9 µM.

Question: And the IC50?
Answer: Its IC50 is 7.1 µM.

Question: For `Cc1nc(-c2ccc3c(c2)CCC3NC(=O)Nc2ncccn2)no1` (stereo not shown) [Compound 110, 1-(5-(5-methyl-1,2,4-oxadiazol-3-yl)-2,3-dihydro-1H-inden-1-yl)-3-(pyrimidin-2-yl)urea], which “CDMF75 IC15” value is on record?
Answer: Its value is 39.2 µM.

Question: And the IC50?
Answer: The IC50 was greater than 39.2 µM.

Question: For `Cc1nc(-c2ccc3c(c2)CC[C@H]3NC(=O)c2cn(C)nc2C)no1` [Compound 111, (R)-1,3-dimethyl-N-(5-(5-methyl-1,2,4-oxadiazol-3-yl)-2,3-dihydro-1H-inden-1-yl)-1H-pyrazole-4-carboxamide], which “CDMF75 IC15” value is on record?
Answer: The value was 1.1 µM.

Question: What about the IC50 of the same compound?
Answer: Its IC50 is 3.7 µM.

Question: Which results are given for `Cc1nc(-c2ccc3c(c2)CC[C@H]3NC(=O)c2oc(C)nc2C)no1` [Compound 112, (R)-2,4-dimethyl-N-(5-(5-methyl-1,2,4-oxadiazol-3-yl)-2,3-dihydro-1H-inden-1-yl)oxazole-5-carboxamide]?
Answer: CDMF75 IC15: 1.5 µM; IC50: 5.2 µM

Question: `Cc1nc(-c2ccc3c(c2)CC[C@H]3NC(=O)c2oncc2C)no1` [Compound 113, (R)-4-methyl-N-(5-(5-methyl-1,2,4-oxadiazol-3-yl)-2,3-dihydro-1H-inden-1-yl)isoxazole-5-carboxamide] was tested. Which “CDMF75 IC15” value did it give?
Answer: The value was 0.3 µM.

Question: What about the IC50 of the same compound?
Answer: The IC50 was 1.3 µM.

Question: `COCc1nc(-c2ccc3c(c2)CC[C@H]3NC(=O)c2oncc2C)no1` [Compound 114, (R)-N-(5-(5-(methoxymethyl)-1,2,4-oxadiazol-3-yl)-2,3-dihydro-1H-inden-1-yl)-4-methylisoxazole-5-carboxamide] was tested. Which “CDMF75 IC15” value did it give?
Answer: Its value is 0.5 µM.

Question: And the IC50?
Answer: Its IC50 is 2 µM.

Question: Which “CDMF75 IC15” value does the source give for `Cc1cnoc1C(=O)N[C@@H]1CCc2cc(-c3noc(C4CC4)n3)ccc21` [Compound 115, (R)-N-(5-(5-cyclopropyl-1,2,4-oxadiazol-3-yl)-2,3-dihydro-1H-inden-1-yl)-4-methylisoxazole-5-carboxamide] here?
Answer: Its value is 0.3 µM.

Question: And the IC50?
Answer: The IC50 was 0.9 µM.

Question: Which results are given for `Cc1cnoc1C(=O)N[C@@H]1CCc2cc(-c3noc(C4COC4)n3)ccc21` [Compound 117, (R)-4-methyl-N-(5-(5-(oxetan-3-yl)-1,2,4-oxadiazol-3-yl)-2,3-dihydro-1H-inden-1-yl)isoxazole-5-carboxamide]?
Answer: CDMF75 IC15: 1.9 µM; IC50: 10.1 µM

Question: Which “CDMF75 IC15” value does the source give for `Cn1cnc(C(=O)NC2CCc3cc(-c4noc(C(F)F)n4)ccc32)n1` (stereo not shown) [Compound 118, N-(5-(5-(difluoromethyl)-1,2,4-oxadiazol-3-yl)-2,3-dihydro-1H-inden-1-yl)-1-methyl-1H-1,2,4-triazole-3-carboxamide] here?
Answer: Its value is 19.3 µM.

Question: What about the IC50 of the same compound?
Answer: Its IC50 is greater than 39.2 µM.

Question: Which results are given for `Cc1nc(-c2ccc3c(c2)CCC3NC(=O)c2ncn(C)n2)no1` (stereo not shown) [Compound 119, 1-methyl-N-(5-(5-methyl-1,2,4-oxadiazol-3-yl)-2,3-dihydro-1H-inden-1-yl)-1H-1,2,4-triazole-3-carboxamide]?
Answer: CDMF75 IC15: 39.2 µM; IC50: > 39.2 µM

Question: How did the “CDMF75 IC15” value turn out when `Cc1nc(-c2ccc3c(c2)CCC3NC(=O)c2ncnn2C)no1` (stereo not shown) [Compound 120, 1-methyl-N-(5-(5-methyl-1,2,4-oxadiazol-3-yl)-2,3-dihydro-1H-inden-1-yl)-1H-1,2,4-triazole-5-carboxamide] was run?
Answer: Its value is 2.4 µM.

Question: What about the IC50 of the same compound?
Answer: The IC50 was 9.8 µM.

Question: What does the source list for `Cc1nc(-c2ccc3c(c2)OCC3NC(=O)c2ccnn2C)no1` (stereo not shown) [Compound 121, 1-methyl-N-(6-(5-methyl-1,2,4-oxadiazol-3-yl)-2,3-dihydrobenzofuran-3-yl)-1H-pyrazole-5-carboxamide]?
Answer: CDMF75 IC15: 1.0 µM; IC50: 3.1 µM

Question: With `Cc1nc(-c2ccc3c(c2)OC[C@H]3NC(=O)c2ccnn2C)no1` [Compound 122, (S)-1-methyl-N-(6-(5-methyl-1,2,4-oxadiazol-3-yl)-2,3-dihydrobenzofuran-3-yl)-1H-pyrazole-5-carboxamide] as the compound, how does the “CDMF75 IC15” value read?
Answer: Its value is 0.5 µM.

Question: What about the IC50 of the same compound?
Answer: Its IC50 is 1.8 µM.

Question: With `Cn1nccc1C(=O)NC1COc2cc(-c3noc(C(F)F)n3)ccc21` (stereo not shown) [Compound 123, N-(6-(5-(difluoromethyl)-1,2,4-oxadiazol-3-yl)-2,3-dihydrobenzofuran-3-yl)-1-methyl-1H-pyrazole-5-carboxamide] as the compound, how does the “CDMF75 IC15” value read?
Answer: The value was 0.5 µM.

Question: And the IC50?
Answer: The IC50 was 1.7 µM.

Question: Which “CDMF75 IC15” value does the source give for `Cc1nc(-c2ccc3c(c2)CC[C@H]3NC(=O)c2ccc3[nH]c(=O)[nH]c3c2)no1` [Compound 125, (R)-N-(5-(5-methyl-1,2,4-oxadiazol-3-yl)-2,3-dihydro-1H-inden-1-yl)-2-oxo-2,3-dihydro-1H-benzo[d]imidazole-5-carboxamide] here?
Answer: Its value is 1.6 µM.

Question: And the IC50?
Answer: The IC50 was 6.2 µM.

Question: How did the “CDMF75 IC15” value turn out when `CO[C@@H](C)c1nc(-c2ccc3c(c2)CC[C@H]3NC(=O)c2oncc2C)no1` [Compound 126, N-((R)-5-(5-((S)-1-methoxyethyl)-1,2,4-oxadiazol-3-yl)-2,3-dihydro-1H-inden-1-yl)-4-methylisoxazole-5-carboxamide] was run?
Answer: Its value is 1.6 µM.

Question: What about the IC50 of the same compound?
Answer: Its IC50 is 5.7 µM.
